{"source": "patent US6087395A", "about": "“Isocarbacyclin derivatives as apoptosis inhibitors” (Japan Science and Technology Corporation, priority 1997, dated 2000)", "key": {"hippocampal neurons": {"system": "hippocampal neurons", "assay": "Hippocampal neuron apoptosis induced by high-oxygen (50% oxygen) incubation", "format": "cell-based, rat (Wistar strain, fetal)", "settings": "48 hours; for survival rate of hippocampal neurons incubated in 50% oxygen (FIG. 1): 5 μM (bFGF 50 nM), neurons in 9% oxygen as control; for dose-dependent effect on hippocampal neural apoptosis / neuroprotection (FIG. 2): range of concentrations tested, n=4; for survival rate of neurons at 3000 nM (FIG. 2): control = neurons in 9% oxygen; for IC50: Rattus norvegicus, Hippocampal neuron, read-out: IC50 (inhibition of hippocampal neural apoptosis)", "procedure": "Effect of 15R-TIC and Deoxy-TIC on hippocampal neuron apoptosis induced by a high-oxygen incubation was tested.\nIsocarbacyclin was a pure sample supplied from Teijin Co., Ltd. 15S-TIC was prepared in accordance with the method disclosed in Example 3 of JP-A 245,498/96 by using 15S-16-m-tolyl-17,18,19,20-tetra-nor-carbacyclin which is also disclosed in Example 2 of the same Publication JP-A 245,498/96. The 15R-TIC was prepared by the same method as disclosed in Example 3 of the Publication JP-A 245,498/96. bFGF was the commercially available one.\nHippocampal region was cut out from the fetal rat brain which was aseptically isolated from a pregnant rat (Wistar strain) of […] and the hippocampal region was dispersed into neurons by shaking culture for 30 minutes in a PBS (Ca- and Mg-free) containing DL-cysteine (0.2 mg/ml), bovine serum albumin (0.2 mg/ml), glucose (5 mg/ml), DNase I (0.01%) and papain (9 units/ml). After that, each neutron was planted at the density of 5×10^5 cells/cm^2 on a 24-well plate (coated with polyethyleneimine) filled with a DME/F-12 medium (containing 5% equine serum and 5% fetal bovine serums and incubated for two days in a 5% carbon dioxide gas incubator (9% oxygen). After that, the culture medium was substituted with an DME/F-12 medium (containing 5 μg/ml of transferrin, 5 μg/ml of insulin and 5 nM progasterone) wherefrom serum was removed. Then each sample to be tested was added to the medium, and after 30 minutes, transfered into 50% oxygen. After incubating in 50% oxygen for 48 hours, the survival rate of the neurons was measured. The neurons in 9% oxygen were also added to each sample and the survival rate was measured.\nWhich regard to the survival rate, the neurons were immobilized by 4% paraformaldehyde, stained with anti-MAP2 antibody and colored by DAB, and the cells positive to MAP2 were counted from the 200-fold enlarged picture whereupon the survival rate was calculated."}, "[1]": {"system": "hippocampal CA1 pyramidal neurons", "assay": "Hippocampal CA1 pyramidal neuron apoptosis induced by transient forebrain ischemia, in vivo", "parameters": "species or system mongolian gerbil", "settings": "continuous infusion into left lateral ventricle for 7 days", "procedure": "Effect of 15R-TIC on hippocampal CA1 pyramidal neurons apoptosis induced by ischemic damage in mongolian gerbils was tested in vivo.\nTo examine whether 15R-TIC can prevent nouronal death in vivo, using an osmotic mini-pomp, 15R-TIC solution was continuously infused for 7 days (started 2 days before the transient ischemia and ended at 5 days) into the left lateral ventricle of gerbils that had been subjected to a transient forebrain ischemia for 3 minutes. Survival number of CA1 pyramidal neurons was assessed by counting neurons with cell bodies larger than 10 μm in the Nissl-staining sections."}, "[2]": {"settings": "rhesus monkey, in vivo"}}, "data": [{"smiles": "CCCCC[C@H](O)/C=C/[C@@H]1[C@H]2CC(CCCCC(=O)O)=C[C@H]2C[C@H]1O", "note": "[isocarbacyclin]", "values": [{"measurement": "survival rate of hippocampal neurons incubated in 50% oxygen (FIG. 1)", "setting": "hippocampal neurons", "result": "greatly reduced by apoptosis induced by a high-oxygen condition as same as under the control condition"}, {"measurement": "dose-dependent effect on hippocampal neural apoptosis / neuroprotection (FIG. 2)", "setting": "hippocampal neurons", "result": "did not have any effect on neuroprotection in the range of concentrations tested"}]}, {"smiles": "Cc1cccc(CC/C=C/[C@@H]2[C@H]3CC(CCCCC(=O)O)=C[C@H]3C[C@H]2O)c1", "note": "[Deoxy-TIC, 15-Deoxy-16-(m-tolyl)-17,18,19,20-tetranorisocarbacyclin]", "values": [{"measurement": "survival rate of neurons at 3000 nM (FIG. 2)", "setting": "hippocampal neurons", "result": "equivalent to the control"}, {"measurement": "survival rate of hippocampal neurons incubated in 50% oxygen (FIG. 1)", "setting": "hippocampal neurons", "result": "an increase in the survival rate of neurons was observed to the same or even better extent as compared with the case of bFGF"}, {"measurement": "IC50", "setting": "hippocampal neurons", "result": "~0.03", "unit": "µM"}, {"measurement": "dose-dependent effect on hippocampal neural apoptosis / neuroprotection (FIG. 2)", "setting": "hippocampal neurons", "result": "dose-dependent inhibitory effect on neural apoptosis"}]}, {"smiles": "Cc1cccc(C[C@@H](O)/C=C/[C@@H]2[C@H]3CC(CCCCC(=O)O)=C[C@H]3C[C@H]2O)c1", "note": "[15R-TIC, 15R-16-(m-tolyl)-17,18,19,20-tetranorisocarbacyclin]", "values": [{"measurement": "loss of CA1 pyramidal neurons induced by forebrain ischemia", "setting": "[1]", "result": "blocked the loss of CA1 pyramidal neurons induced by forebrain ischemia"}, {"measurement": "number of CA1 pyramidal neurons", "setting": "[1]; in a 20 μm thick section, n=4, 3 minutes transient forebrain ischemia, ischemia-free control 1061±220, vehicle 142±28", "result": "984±299"}, {"measurement": "survival rate of neurons at 3000 nM (FIG. 2)", "setting": "hippocampal neurons", "result": "equivalent to the control"}, {"measurement": "survival rate of hippocampal neurons incubated in 50% oxygen (FIG. 1)", "setting": "hippocampal neurons", "result": "an increase in the survival rate of neurons was observed to the same or even better extent as compared with the case of bFGF"}, {"measurement": "IC50", "setting": "hippocampal neurons", "result": "~0.3", "unit": "µM"}, {"measurement": "dose-dependent effect on hippocampal neural apoptosis / neuroprotection (FIG. 2)", "setting": "hippocampal neurons", "result": "dose-dependent inhibitory effect on neural apoptosis"}]}, {"smiles": "COC(=O)CCCCC1=C[C@H]2C[C@@H](O)[C@H](/C=C/[C@H](O)Cc3cccc([11CH3])c3)[C@H]2C1", "note": "[RTA]", "values": [{"measurement": "conversion in the brain (prodrug behaviour)", "setting": "[2]", "result": "could serve as a prodrug for 15R-TIC"}, {"measurement": "pass through blood-brain-barrier / transfer into brain", "setting": "[2]; iv", "result": "equivalent pass through blood-brain-barrier"}, {"measurement": "retention in the brain", "setting": "[2]; iv", "result": "retained in the brain further than RTC"}]}, {"smiles": "Cc1cccc(C[C@H](O)/C=C/[C@@H]2[C@H]3CC(CCCCC(=O)O)=C[C@H]3C[C@H]2O)c1", "note": "[15S-TIC, reference compound]", "values": [{"measurement": "survival rate of hippocampal neurons incubated in 50% oxygen (FIG. 1)", "setting": "hippocampal neurons", "result": "greatly reduced by apoptosis induced by a high-oxygen condition as same as under the control condition"}, {"measurement": "dose-dependent effect on hippocampal neural apoptosis / neuroprotection (FIG. 2)", "setting": "hippocampal neurons", "result": "did not have any effect on neuroprotection in the range of concentrations tested"}]}, {"smiles": "COC(=O)CCCCC1=C[C@H]2C[C@@H](O)[C@H](/C=C/[C@H](O)Cc3cccc(C)c3)[C@H]2C1", "note": "[15R-TIC methyl ester]", "values": [{"measurement": "conversion in the brain (prodrug behaviour)", "setting": "[2]", "result": "is converted to 15R-TIC in the brain"}, {"measurement": "pass through blood-brain-barrier / transfer into brain", "setting": "[2]; iv", "result": "efficiently transfererd into the brain"}]}, {"smiles": "Cc1cccc(C[C@@H](O)/C=C/[C@@H]2[C@H]3CC(CCCCC(=O)O[11CH3])=C[C@H]3C[C@H]2O)c1", "note": "[RTC]", "values": [{"measurement": "pass through blood-brain-barrier / transfer into brain", "setting": "[2]; iv", "result": "equivalent pass through blood-brain-barrier"}]}]}
